Test results: US20160082087A1, “WHITENING PROMOTING AGENT OR ATOPIC DERMATITIS AMELIORATING AGENT” (NITTA GELATIN INC., priority 2013, published 2016)
Marks after values point to notes of the source that are not given here. Square brackets hold non-standard residues; d marks the D form. Ends that are not written are not given here. Hyp = O=C(O)[C@@H]1C[C@@H](O)CN1

Tests used:
Format in all cases: cell-based, human
endoserine-1 (ET-1) = assay: ET-1 expression suppression test (real time PCR); details: 0.5 mM, 24 hours, NHEK (NB), control 1.00, GAPDH corrected
Procedure: (§1) A normal human epidermal keratinocyte NHEK (NB) (available from KURABO INDUSTRIES LTD.) was used. The cells were precultured in HuMedia-KG2 (available from KURABO INDUSTRIES LTD.), and 1.5×10^4 cells/mL×5 mL (7.5×10^4 cells/dish) were cultured in a 60 mm laboratory dish for two days. After confirming that the cells were subconfluent, the medium was replaced by 5 mL of HuMedia-KB2 (available from KURABO INDUSTRIES LTD.). Samples were added in respective concentrations, and allowed to react for 24 hours (ET-1, K10), 48 hours (TGM1, ivl, HAS2), and 72 hours (FLG). Total RNA was extracted from the cells, reverse transcribed, and subjected to real time PCR. In the real time PCR, as target genes, endoserine-1 (ET-1; Hs00174961_m1), keratin 10 (K10; Hs01043114_g1), transglutaminase 1 (TGM1; Hs01070310_m1), involucrin (ivl; Hs00846307_s1), filaggrin (FLG; Hs00856927_g1) and hyaluronic acid synthase 2 (HAS2; Hs00193435_m1) were measured. GAPDH was used as a correction gene. Calculation was conducted by using a calibration curve method, and FAM pigment of TaqMan Gene Expression was used in primers and probes.
(§2) For each peptide or the like of Examples 1 to 13 and Comparative Examples 1 to 27, RNA expression amounts of endoserine-1 (ET-1), keratin 10 (K10), transglutaminase 1 (TGM1), involucrin (ivl), filaggrin (FLG) and hyaluronic acid synthase 2 (HAS2) were measured. Values in the tables are each average value±standard deviation, and *, ** and *** denote that they are significant with P<0.05, P<0.01, and P<0.001, respectively with respect to the control in Paired-t-test.

keratin 10 (K10) = assay: K10 expression promotion test (real time PCR); details: 0.5 mM, 24 hours, NHEK (NB), control 1.00, GAPDH corrected
Procedure: as §1, §2

[1] = system: transglutaminase 1 (TGM1); assay: TGM1 expression promotion test (real time PCR); details: 0.5 mM, 48 hours, NHEK (NB), control 1.00, GAPDH corrected
Procedure: as §1, §2

involucrin (ivl) = assay: ivl expression promotion test (real time PCR); details: 0.5 mM, 48 hours, NHEK (NB), control 1.00, GAPDH corrected
Procedure: as §1, §2

filaggrin (FLG) = assay: FLG expression promotion test (real time PCR); details: 0.5 mM, 72 hours, NHEK (NB), control 1.00, GAPDH corrected
Procedure: as §1, §2

[2] = system: hyaluronic acid synthase 2 (HAS2); assay: HAS2 expression promotion test (real time PCR); details: 0.5 mM, 48 hours, NHEK (NB), control 1.00, GAPDH corrected
Procedure: as §1, §2

| Transglutaminase 1 RNA expression amount [1] | Compound | Endoserine-I RNA expression amount (endoserine-1 (ET-1)) | Keratin 10 RNA expression amount (keratin 10 (K10)) | Involucrin RNA expression amount (involucrin (ivl)) | Filaggrin RNA expression amount (filaggrin (FLG)) | Hyaluronic acid synthase 2 RNA expression amount [2] |
| --- | --- | --- | --- | --- | --- | --- |
| 7.21 ± 0.03** | (Pro-Hyp-Gly)2 [Example 2] | 0.43 ± 0.03*** | 5.69 ± 0.28*** | 4.35 ± 0.04*** | 9.58 ± 1.02*** | 3.11 ± 0.89** |
| 0.48 ± 0.02*** | Ala-Hyp [Comparative Example 2] | 1.23 ± 0.03* | 1.00 ± 0.06 | 1.01 ± 0.00 | 0.98 ± 0.95 | 0.99 ± 0.66 |
| 1.69 ± 0.01*** | Glu-[Hyp]-Gly [Example 8] | 0.71 ± 0.03 | 2.39 ± 0.02* | 1.89 ± 0.03* | 2.92 ± 0.89** | 2.56 ± 0.45** |
| 2.15 ± 0.02** | Gly-Pro [Example 3] | 0.36 ± 0.12** | 2.56 ± 0.22*** | 2.18 ± 0.00*** | 7.21 ± 0.95*** | 3.08 ± 0.99** |
| 1.99 ± 0.06* | Hyp-Gly [Example 9] | 0.55 ± 0.09** | 1.99 ± 0.13* | 2.04 ± 0.02* | 2.98 ± 0.58** | 2.18 ± 0.67** |
| 1.46 ± 0.02* | Phe-Hyp [Example 11] | 0.97 ± 0.16 | 2.22 ± 0.01*** | 1.85 ± 0.00*** | 1.95 ± 0.19* | 1.63 ± 0.49* |
| 0.94 ± 0.13 | Pro-Ala [Comparative Example 6] | 1.09 ± 0.01** | 0.70 ± 0.04 | 0.81 ± 0.06** | 0.63 ± 0.08** | 0.99 ± 0.68 |
| 3.11 ± 0.02*** | Pro-Ala-Gly [Example 4] | 0.67 ± 0.01** | 3.98 ± 0.23*** | 2.75 ± 0.03*** | 5.33 ± 1.25*** | 2.99 ± 1.03** |
| 0.64 ± 0.01*** | Pro-Gly [Comparative Example 4] | 1.06 ± 0.10** | 0.89 ± 0.01* | 0.72 ± 0.02* | 0.86 ± 0.18 | 0.54 ± 0.98* |
| 0.64 ± 0.01*** | Pro-Pro [Comparative Example 5] | 1.65 ± 0.07* | 0.98 ± 0.16 | 0.56 ± 0.04* | 0.66 ± 0.09** | 0.78 ± 0.64* |
| 5.36 ± 0.01*** | Pro-[Hyp]-Gly [Example 5] | 0.53 ± 0.00 | 3.81 ± 0.17*** | 1.75 ± 0.22* | 5.32 ± 0.69*** | 2.45 ± 0.90** |

Continued, compound first:

| Compound | Transglutaminase 1 RNA expression amount [1] | Endoserine-I RNA expression amount (endoserine-1 (ET-1)) | Keratin 10 RNA expression amount (keratin 10 (K10)) | Involucrin RNA expression amount (involucrin (ivl)) | Filaggrin RNA expression amount (filaggrin (FLG)) | Hyaluronic acid synthase 2 RNA expression amount [2] |
| --- | --- | --- | --- | --- | --- | --- |
| O=C(O)[C@@H]1CCCN1 [Comparative Example 7, L-proline] | 1.02 ± 0.13 | 1.89 ± 0.06** | 0.73 ± 0.03** | 0.78 ± 0.01** | 0.85 ± 0.18 | 0.84 ± 0.47 |
| O=C(O)[C@@H]1C[C@@H](O)CN1 [Comparative Example 8, L-hydroxyproline] | 0.94 ± 0.10 | 1.52 ± 0.02*** | 0.64 ± 0.02** | 0.94 ± 0.04 | 0.89 ± 0.09 | 0.70 ± 0.29 |
| NCC(=O)O [Comparative Example 9, L-glycine] | 0.75 ± 0.01** | 1.01 ± 0.05** | 0.81 ± 0.05 | 0.71 ± 0.03** | 0.87 ± 0.05 | 0.61 ± 0.40** |
| CC(C)C[C@H](N)C(=O)O [Comparative Example 10, L-leucine] | 0.63 ± 0.07* | 1.58 ± 0.05** | 0.62 ± 0.01** | 0.84 ± 0.03 | 0.89 ± 0.08 | 0.76 ± 0.07* |
| N[C@@H](CCC(=O)O)C(=O)O [Comparative Example 11, L-glutamic acid] | 0.40 ± 0.01** | 1.00 ± 0.02** | 0.65 ± 0.01** | 0.85 ± 0.11 | 0.77 ± 0.04* | 1.06 ± 0.24 |
| C[C@H](N)C(=O)O [Comparative Example 12, L-alanine] | 0.95 ± 0.04 | 1.58 ± 0.05** | 0.82 ± 0.02* | 0.64 ± 0.15** | 0.69 ± 0.02** | 0.89 ± 0.57 |
| N[C@@H](CO)C(=O)O [Comparative Example 13, L-serine] | 0.85 ± 0.02 | 1.64 ± 0.07** | 0.69 ± 0.03** | 0.98 ± 0.05 | 0.85 ± 0.08 | 0.81 ± 0.50 |
| N[C@@H](Cc1ccccc1)C(=O)O [Comparative Example 14, L-phenylalanine] | 0.72 ± 0.05** | 1.05 ± 0.05 | 0.78 ± 0.07 | 0.87 ± 0.04 | 0.59 ± 0.05** | 0.89 ± 0.84 |
| (Pro-Hyp-Gly)5 [Example 1] | 13.50 ± 2.69** | 0.32 ± 0.00* | 6.40 ± 0.06 | 7.96 ± 0.60** | 11.23 ± 1.56*** | 3.45 ± 1.02** |
| Ala-[Hyp]-Gly [Example 7] | 2.00 ± 0.02*** | 0.52 ± 0.01 | 5.06 ± 0.37*** | 1.36 ± 0.07* | 3.09 ± 0.23** | 2.21 ± 0.67** |
| Glu-Hyp [Example 6] | 2.12 ± 0.01*** | 0.65 ± 0.02 | 3.48 ± 0.05*** | 1.95 ± 0.08** | 3.26 ± 1.61** | 2.35 ± 0.85** |
| Gly-Pro-[Hyp] [Comparative Example 1] | 0.98 ± 0.05 | 1.05 ± 0.11 | 0.94 ± 0.10 | 0.95 ± 0.08 | 1.08 ± 0.21 | 0.98 ± 0.45 |
| Leu-Hyp [Comparative Example 3] | 0.58 ± 0.01*** | 1.08 ± 0.00 | 1.04 ± 0.06 | 0.89 ± 0.09* | 0.69 ± 0.58 | 0.87 ± 0.63 |
